Laboratory results published in patent US9763996B2, “Polymyxin derivative and uses thereof” (Northern Antibiotics Ltd., priority 2015, dated 2017).
≈ marks a conversion by molar mass, not a printed value. Entries after “also recorded” stand apart in the source; their conditions may differ. Where two headings read alike, the source gives them in different places. Each block holds one compound with its values, some of them ahead of it. Where a SMILES comes first, the peptide text is derived from it. Bridges are numbered along the chain shown (N, C = ends). [ ]: non-standard residue; d: D form. The star is where a group is joined. Octanoyl = CCCCCCCC(=O)*; Dab = NCC[C@H](N)C(=O)O

Key:
[1] = system: P. aeruginosa JMI 7445; test: microbe, parasite or virus in culture; details: Pseudomonas aeruginosa, JMI7445
[2] = system: A. baumannii ATCC 19606; test: microbe, parasite or virus in culture; details: Acinetobacter baumannii, ATCC19606
[3] = system: A. baumannii CMI 417; test: microbe, parasite or virus in culture; details: Acinetobacter baumannii, CMI417
[4] = system: K. pneumoniae JMI 27068; test: microbe, parasite or virus in culture; details: Klebsiella pneumoniae, JMI27068
[5] = system: K. pneumoniae JMI 27072; test: microbe, parasite or virus in culture; details: Klebsiella pneumoniae, JMI27072
[6] = system: P. aeruginosa ATCC 27853; test: MIC assay (CLSI broth microdilution; checkerboard with rifampin); details: Pseudomonas aeruginosa, ATCC27853
[7] = system: K. pneumoniae ATCC 43816; test: microbe, parasite or virus in culture; details: Klebsiella pneumoniae, ATCC43816
[8] = system: E. coli JMI 3328; test: microbe, parasite or virus in culture; details: Escherichia coli, JMI3328
[9] = system: E. coli JMI 109; test: microbe, parasite or virus in culture; details: Escherichia coli, JMI109
[10] = system: A. baumannii JMI 48125; test: microbe, parasite or virus in culture; details: Acinetobacter baumannii, JMI48125
[11] = system: E. coli ATCC 25922; test: microbe, parasite or virus in culture; details: Escherichia coli, ATCC25922
[12] = system: E. coli JMI 3328; details: JMI 3328
[13] = system: K. pneumoniae ATCC 43816; details: ATCC 43816
[14] = Toxicokinetics (plasma and urine) in cynomolgus monkeys; details: cynomolgus monkey, in vivo; for AUC: plasma
Procedure: (§1) For seven days, the animals were dosed by intravenous (IV) infusion three times daily (TID) at a dose volume of 10 mL/kg for 1 hour (±10 minutes), 8±0.5 hours apart. The day of initial dose administration was designated study Day 1, with subsequent days consecutively numbered. Days prior to the initial dose administration were consecutively numbered with the final day of acclimation referenced as Day −1.
(§2) The following parameters were evaluated at designed intervals: clinical observations, body weights, clinical pathology (hematology, coagulation, serum chemistry, urinalysis including urine sediments and urine chemistry), toxicokinetics (plasma and urine) and anatomic pathology (kidney). In cases of animals sacrificed on an unscheduled basis, samples were taken on the day of the sacrifice.
Plasma and urine concentrations for toxicokinetic (TK) studies were determined by using liquid chromatograph interfaced with a mass spectrometer after precipitation of proteins. A sample (100 μL) was mixed with internal standard solution in water:formic acid (99:1 v/v; […]). Then, 600 μL of 100:1 acetonitrile:formic acid was added. The plates were centrifuged at 3200 rpm for 5 minutes. Using a Tomtec Quadra96, a 450 μL aliquot was transferred to a new 96-well plate and dried under nitrogen at 40° C. Then, 200 μL of water:methanol:formic acid (85:15:1 1 v/v) was added and the plate sealed for LC-MS/MS injection. LC-MS system consisted of Waters Acquity liquid chromatograph interfaced with a Thermo Scientific TSQ Quantitative triple quadrupole MS with ionization in the positive ion mode. Each sample (20 μL) was injected onto a Waters Acquity BEH Shield RP18 column (2.1×50 mm; 1.7 μm) equilibrated at 50° C. Mobile Phase A was 85:15:1 v/v water:methanol:formic acid. Mobile Phase B was 50:50:1 v/v acetonitrile:methanol:formic acid.
Peak area ratios from the calibration standard responses were regressed using a (1/concentration^2) linear fit for polymyxin B using colistin as the internal standard. For NAB739 and NAB815, peak areas from the calibration standard responses were regressed using a (1/concentration^2) quadratic fit (without the use of an internal standard).
The regression models were chosen based upon the behavior of the analytes across the concentration range used during development.
Toxicokinetic analysis was performed by using WinNonlin Phoenix version 6.3 software (Pharsight, Cary, N.C.). For plasma TK, noncompartmental IV infusion model was used.
In the cynomolgus monkey studies described in Example 3, where the peptides were administered as a 1-hour intravenous infusion three times daily, plasma and urine levels of the peptides were determined.

[15] = system: K. pneumoniae JMI 27072; details: JMI 27072
[16] = system: P. aeruginosa JMI 7445; details: JMI 7445
[17] = system: A. baumannii ATCC 19606; details: ATCC 19606
[18] = system: E. coli ATCC 25922; details: ATCC 25922
[19] = system: A. baumannii CMI 417; details: alone; A. baumannii CMI 417 (polymyxin-nonsusceptible)
[20] = system: P. aeruginosa; test: Synergy studies with rifampin; type: cell-based, Pseudomonas aeruginosa; details: against P. aeruginosa
Procedure: Synergy studies were performed by using polymyxin derivatives in combination with rifampin, a model compound for such antibacterial agents that the intact outer membrane of Gram-negative bacteria acts as a permeability barrier.

[21] = 7-day IV infusion toxicity (nephrotoxicity) study in cynomolgus monkeys
Procedure: In vivo toxicity and toxicokinetic studies were performed by using cynomolgus monkeys. The laboratory that performed the animal studies is accredited by the Association for Assessment and Accreditation of Laboratory Animal Care (AAALAC), has an Animal Welfare Assurance issued by the Office of Laboratory Animal Welfare (OLAW), is registered with the United States Department of Agriculture (USDA), and has an Institutional Animal Care and Use Committee (IACUC) responsible for compliance with applicable laws and regulations concerning the humane care and use of laboratory animals.
Naïve female cynomolgus monkeys were acclimatized to study room for 28 days during which each animal was implanted with a permanent indwelling femoral catheter to permit continuous intravenous infusions. The animals were allowed surgical recovery period of at least 2 weeks before initiating dosing.
Polymyxin B sulfate was from Sigma-Aldrich (catalogue number P0972, lot number BCBF8382V). On each day of use, appropriate quantities of NAB739, NAB815 or polymyxin B were weighed and dissolved in appropriate volumes of sterile saline to prepare a stock solution for each test article and positive control. A correction factor was used in the stock solution preparation to account for both the purity and sulfate content in each test article. Accordingly, the dose (such as 36 mg/kg/d) refers to the dose of the pure peptide as its free base form, not as its sulfate salt.
The doses were the following: polymyxin B 18 mg/kg/d (Group 1), polymyxin B 24 mg/kg/d (Group 2), NAB739 24 mg/kg/d (Group 3), NAB739 36 mg/kg/d (Group 4), NAB815 24 mg/kg/d (Group 5), NAB815 36 mg/kg/d (Group 6). Three animals were included in each study groups.
as §1, §2
On the day of necropsy, animals were sedated with ketamine, weighed, and anesthetized with an intravenous injection of a commercial pentobarbital and phenytoin solution, followed by exsanguinations.
At necropsy, gross observations and organ weights were recorded, and specific tissues were collected. Histopathology was conducted on sections of kidney stained with hematoxylin and eosin (H&E).
The figures also show Urine N-acetyl-β-D-glucosaminidase/urine creatinine ratio (U-NAG/Crea; FIG. 3) and Urine Gamma Glutamyltransferase/urine creatinine ratio (U-GGT/Crea; FIG. 4), both urine biomarkers for kidney injury, in those animals. S-Crea and U-Crea were measured by using an Olympus Analyzer (OA) and the modified Jaffe method, S-BUN by using OA and urease/L-glutamate dehydrogenase. U-NAG was measured by using OA/enzymatic, and U-GGT by using OA and glutamyl-carboxy-p-nitroanilide IFCC.
The presence of the following nephro-pathological parameters was recorded in each animal: tubular basophilia (re-generation), tubular degeneration/necrosis, infiltration (by mononuclear and/or mixed inflammatory cells), tubular dilatation, and tubular casts.

[22] = system: E. coli JMI 109; details: JMI 109

- MIC [1]: 32 µg/mL (≈ 38.9 µM)
- MIC [2]: 4 µg/mL (≈ 4.86 µM)
- MIC [3]: 4 µg/mL (≈ 4.86 µM)
- MIC [4]: 64 µg/mL (≈ 77.8 µM)
- MIC [5]: 8 µg/mL (≈ 9.72 µM)
- MIC [6]: 32 µg/mL
- MIC [7]: 16 µg/mL (≈ 19.4 µM)
- MIC [8]: 8 µg/mL (≈ 9.72 µM)
- MIC [9]: 16 µg/mL (≈ 19.4 µM)
- MIC [10]: 4 µg/mL (≈ 4.86 µM)
- MIC [11]: 8 µg/mL (≈ 9.72 µM)
Compound: CO[C@H]1/C=C/O[C@@]2(C)Oc3c(C)c(O)c4c(O)c(c(/C=N/N5CCN(C)CC5)c(O)c4c3C2=O)NC(=O)/C(C)=C\C=C\[C@H](C)[C@H](O)[C@@H](C)[C@@H](O)[C@@H](C)[C@H](OC(C)=O)[C@@H]1C [rifampin]

Compound: CCCCCCCC(=O)N[C@H](C(=O)N[C@H](CO)C(=O)N[C@H]1CCNC(=O)[C@H]([C@@H](C)O)NC(=O)[C@H](CCN)NC(=O)[C@H](CCN)NC(=O)[C@H](CC(C)C)NC(=O)[C@@H](Cc2ccccc2)NC(=O)[C@H](CCN)NC1=O)[C@@H](C)O [NAB739, octanoyl-Thr-DSer-[cyclo-α,γDab-αDab-DPhe-Leu-αDab-αDab-Thr]] (Octanoyl-T[dS][Dab][Dab][dF]L[Dab][Dab]T; lactam 3-C)
- MIC [12]: 2 µg/mL (≈ 1.86 µM)
- MIC [13]: 4 µg/mL (≈ 3.72 µM)
- AUC ([14]; 36 mg/kg/day, AUCs, dosed at 36 mg/kg/d, day 1): 239 µg·h/mL
- AUC ([14]; iv, 8 mg/kg, AUCs 0-8 h, after infusion of 8 mg/kg, day 1): 108 µg·h/mL
- AUC ([14]; iv, 8 mg/kg, AUCs 0-8 h, after infusion of 8 mg/kg, day 7): 137 µg·h/mL
- AUC ([14]; iv, 36 mg/kg/day, AUCs, dosed at 36 mg/kg/d, day 7): 302 µg·h/mL
- dose excreted ([14]; female, iv, 36 mg/kg/d, urinary recoveries (0-8 h urine collection), 36 mg/kg/d, day 1, each animal): 15.4%
- MIC [15]: 2 to 4 µg/mL
- MIC [16]: 4 µg/mL (≈ 3.72 µM)
- MIC [17]: 4 µg/mL (≈ 3.72 µM)
- MIC [18]: 2 µg/mL (≈ 1.86 µM)
- MIC [19]: 128 µg/mL (≈ 119 µM)
- synergistic activity with rifampin [20]: lacked any notable synergistic activity with rifampin
- kidney injury markers (S-BUN, S-Crea, U-NAG/Crea, U-GGT/Crea) ([21]; 36 mg/kg/d IV TID 7 days): all the four markers were significantly elevated; also recorded: both urine biomarkers were remarkably elevated
- unscheduled necropsy / euthanized due to severe nephrotoxic effects ([21]; 36 mg/kg/d IV TID 7 days, 3 animals per group): One animal receiving NAB739 at 36 mg/kg/d had to be euthanized; also recorded: on Day 5 for one animal in the NAB739 group
- kidney histopathology findings (grade of nephro-pathological parameters) ([21]; 36 mg/kg/d IV TID, H&E kidney sections, per animal(s)): marked tubular degeneration/necrosis; also recorded: marked presence of tubular casts; also recorded: moderate findings, both in two parameters
- MIC [22]: 32 µg/mL (≈ 29.7 µM)
